Converted amounts (≈) assume the structure as drawn.
What was measured:
M. bovis BCG = test: microbe, parasite or virus in culture; format: cell-based; conditions: Mycobacterium tuberculosis variant bovis BCG, read-out: MIC M. bovis BCG
M. tuberculosis H37Rv = test: Antimycobacterial MIC / primary screening, MABA (microplate alamar blue assay); format: cell-based; conditions: Mycobacterium tuberculosis
M. abscessus = test: Antimycobacterial MIC / primary screening, MABA; format: cell-based; conditions: Mycobacteroides abscessus, read-out: MIC M. abscessus
L929 cells = test: Cytotoxicity, MTT protocol (ISO 10993-5:2009(E)); format: cell-based; conditions: ratio to MIC against M. tuberculosis
Experimental: This evaluation adhered precisely to international standards (ISO 10993-5:2009(E)), employing L929 cells and the MTT protocol ([Bekier et al., 2021]). The determination of the half maximal inhibitory concentration (IC50) values was carried out for 12 out of the 13 compounds tested, considering the occurrence of derivative precipitation in the growth medium for L929 cells (Table 1). […] For two compounds (5g and 5i), the discriminatory index (IC50/MIC) was identified at the level of 20.

MTB InhA = MTB InhA (Mycobacterium tuberculosis, UniProt P9WGR1); test: InhA inhibition endpoint assay; format: biochemical; conditions: read-out: IC50 against InhA
MTB InhA, sequence (P9WGR1 whole entry, looked up): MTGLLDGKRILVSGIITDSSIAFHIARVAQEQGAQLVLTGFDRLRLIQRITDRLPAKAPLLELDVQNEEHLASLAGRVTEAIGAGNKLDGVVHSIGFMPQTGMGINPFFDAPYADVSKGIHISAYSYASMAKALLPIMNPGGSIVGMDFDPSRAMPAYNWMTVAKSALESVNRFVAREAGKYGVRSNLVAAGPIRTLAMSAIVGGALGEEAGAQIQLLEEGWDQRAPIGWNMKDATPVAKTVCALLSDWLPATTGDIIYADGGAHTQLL

MTB = conditions: cited from earlier work

Structure (SMILES)	MIC (M. bovis BCG) [µg/mL]	MIC (M. tuberculosis H37Rv) [µg/mL]	MIC (M. abscessus) [µg/mL]	IC50-L929/MIC Mtb (cytotoxicity / discriminatory index) (L929 cells)	melting point [°C]	IC50 (MTB InhA) [nM]	MIC against MTB (MTB; ref Quimque et al., 2023)	MIC, tuberculosis (MTB; ref Gill et al., 2008) [µg/mL]
Cc1c(-c2cc(C(=O)O)c3cc(Cl)ccc3n2)nnn1-c1cccc(Br)c1 [Compound 5L, 2-(1-(3-Bromophenyl)-5-methyl-1H-1,2,3-triazol-4-yl)-6-chlorobenzo [b]pyridine-4-carboxylic acid]	< 125	15 (≈ 33.8 µM)	> 125	13	248 to 250	–	–	–
Cc1c(-c2cc(C(=O)O)c3ccccc3n2)nnn1-c1ccccc1 [Compound 5a, 2-(5-Methyl-1-phenyl-1H-1,2,3-triazol-4-yl)benzo [b]pyridine-4-carboxylic acid]	< 125	125 (≈ 378 µM)	> 125	–	278 to 280	–	–	–
COc1ccc(-n2nnc(-c3cc(C(=O)O)c4ccccc4n3)c2C)cc1 [Compound 5b, 2-(1-(4-Methoxyphenyl)-5-methyl-1H-1,2,3-triazol-4-yl)benzo[b]pyridine-4-carboxylic acid]	< 125	62.5 (≈ 173 µM)	> 125	–	222 to 224	–	–	–
Cc1c(-c2cc(C(=O)O)c3ccccc3n2)nnn1-c1cccc(Cl)c1 [Compound 5c, 2-(1-(3-Chlorophenyl)-5-methyl-1H-1,2,3-triazol-4-yl)benzo [b]pyridine-4-carboxylic acid]	< 125	62.5 (≈ 171 µM)	> 125	–	276 to 277	–	–	–
Cc1c(-c2cc(C(=O)O)c3ccccc3n2)nnn1-c1cccc(Br)c1 [Compound 5d, 2-(1-(3-Bromophenyl)-5-methyl-1H-1,2,3-triazol-4-yl)benzo [b]pyridine-4-carboxylic acid]	< 125	62.5 (≈ 153 µM)	> 125	–	248 to 250	–	–	–
Cc1c(-c2cc(C(=O)O)c3ccccc3n2)nnn1-c1ccc(F)cc1 [Compound 5e, 2-(1-(4-Fluorophenyl)-5-methyl-1H-1,2,3-triazol-4-yl)benzo [b]pyridine-4-carboxylic acid]	< 125	125 (≈ 359 µM)	> 125	–	290 to 291	–	–	–
Cc1c(-c2cc(C(=O)O)c3ccccc3n2)nnn1-c1ccc(Cl)cc1 [Compound 5f, 2-(1-(4-Chlorophenyl)-5-methyl-1H-1,2,3-triazol-4-yl)benzo [b]pyridine-4-carboxylic acid]	< 125	62.5 (≈ 171 µM)	> 125	–	246 to 248	–	–	–
Cc1c(-c2cc(C(=O)O)c3ccccc3n2)nnn1-c1ccc(Br)cc1 [Compound 5g, 2-(1-(4-Bromophenyl)-5-methyl-1H-1,2,3-triazol-4-yl)benzo [b]pyridine-4-carboxylic acid]	< 125	15 (≈ 36.7 µM)	> 125	20	228 to 229	4130 ± 170	–	–
Cc1c(-c2cc(C(=O)O)c3ccccc3n2)nnn1-c1ccc([N+](=O)[O-])cc1 [Compound 5h, 2-(5-Methyl-1-(4-nitrophenyl)-1H-1,2,3-triazol-4-yl)benzo [b]pyridine-4-carboxylic acid]	< 125	125 (≈ 333 µM)	> 125	–	265 to 267	–	–	–
Cc1c(-c2cc(C(=O)O)c3cc(Cl)ccc3n2)nnn1-c1ccccc1 [Compound 5i, 6-Chloro-2-(5-methyl-1-phenyl-1H-1,2,3-triazol-4-yl)benzo [b]pyridine-4-carboxylic acid]	< 125	15 (≈ 41.1 µM)	> 125	20	> 300	11800 ± 490	–	–
COc1ccc(-n2nnc(-c3cc(C(=O)O)c4cc(Cl)ccc4n3)c2C)cc1 [Compound 5j, 6-Chloro-2-(1-(4-methoxyphenyl)-5-methyl-1H-1,2,3-triazol-4-yl)benzo [b]pyridine-4-carboxylic acid]	< 125	15 (≈ 38 µM)	> 125	10	287 to 289	–	–	–
Cc1c(-c2cc(C(=O)O)c3cc(Cl)ccc3n2)nnn1-c1cccc(Cl)c1 [Compound 5k, 6-Chloro-2-(1-(3-chlorophenyl)-5-methyl-1H-1,2,3-triazol-4-yl)benzo [b]pyridine-4-carboxylic acid]	< 125	15 (≈ 37.6 µM)	> 125	13	> 300	–	–	–
Cc1c(-c2cc(C(=O)O)c3cc(Cl)ccc3n2)nnn1-c1ccc(F)cc1 [Compound 5m, 6-Chloro-2-(1-(4-fluorophenyl)-5-methyl-1H-1,2,3-triazol-4-yl)benzo [b]pyridine-4-carboxylic acid]	< 125	62.5 (≈ 163 µM)	> 125	–	298 to 299	–	–	–
Cc1c(-c2cc(C(=O)O)c3cc(Cl)ccc3n2)nnn1-c1ccc(Cl)cc1 [Compound 5n, 6-Chloro-2-(1-(4-chlorophenyl)-5-methyl-1H-1,2,3-triazol-4-yl)benzo [b]pyridine-4-carboxylic acid]	< 125	12.5 (≈ 31.3 µM)	> 125	16	–	720 ± 30	–	–
Cc1c(-c2cc(C(=O)O)c3cc(Cl)ccc3n2)nnn1-c1ccc(Br)cc1 [Compound 5o, 2-(1-(4-Bromophenyl)-5-methyl-1H-1,2,3-triazol-4-yl)-6-chlorobenzo [b]pyridine-4-carboxylic acid]	< 125	15 (≈ 33.8 µM)	> 125	10	> 300	–	–	–
Cc1c(-c2cc(C(=O)O)c3cc(Cl)ccc3n2)nnn1-c1ccc([N+](=O)[O-])cc1 [Compound 5p, 6-Chloro-2-(5-methyl-1-(4-nitrophenyl)-1H-1,2,3-triazol-4-yl)benzo [b]pyridine-4-carboxylic acid]	< 125	62.5 (≈ 153 µM)	> 125	–	235 to 237	–	–	–
Cc1c(-c2cc(C(=O)O)c3cc(Br)ccc3n2)nnn1-c1ccccc1 [Compound 5q, 6-Bromo-2-(5-methyl-1-phenyl-1H-1,2,3-triazol-4-yl)benzo [b]pyridine-4-carboxylic acid]	< 125	15 (≈ 36.7 µM)	> 125	–	> 300	–	–	–
COc1ccc(-n2nnc(-c3cc(C(=O)O)c4cc(Br)ccc4n3)c2C)cc1 [Compound 5r, 6-Bromo-2-(1-(4-methoxyphenyl)-5-methyl-1H-1,2,3-triazol-4-yl)benzo [b]pyridine-4-carboxylic acid]	< 125	15 (≈ 34.1 µM)	> 125	5	294 to 295	–	–	–
Cc1c(-c2cc(C(=O)O)c3cc(Br)ccc3n2)nnn1-c1cccc(Cl)c1 [Compound 5s, 6-Bromo-2-(1-(3-chlorophenyl)-5-methyl-1H-1,2,3-triazol-4-yl)benzo [b]pyridine-4-carboxylic acid]	< 125	15 (≈ 33.8 µM)	> 125	13	> 300	–	–	–
Cc1c(-c2cc(C(=O)O)c3cc(Br)ccc3n2)nnn1-c1cccc(Br)c1 [Compound 5t, 6-Bromo-2-(1-(3-bromophenyl)-5-methyl-1H-1,2,3-triazol-4-yl)benzo [b]pyridine-4-carboxylic acid]	< 125	15 (≈ 30.7 µM)	> 125	13	299 to 300	–	–	–
Cc1c(-c2cc(C(=O)O)c3cc(Br)ccc3n2)nnn1-c1ccc(F)cc1 [Compound 5u, 6-Bromo-2-(1-(4-fluorophenyl)-5-methyl-1H-1,2,3-triazol-4-yl)benzo [b]pyridine-4-carboxylic acid]	< 125	62.5 (≈ 146 µM)	> 125	–	> 300	–	–	–
Cc1c(-c2cc(C(=O)O)c3cc(Br)ccc3n2)nnn1-c1ccc(Cl)cc1 [Compound 5v, 6-Bromo-2-(1-(4-chlorophenyl)-5-methyl-1H-1,2,3-triazol-4-yl)benzo [b]pyridine-4-carboxylic acid]	< 125	15 (≈ 33.8 µM)	> 125	13	> 300	–	–	–
Cc1c(-c2cc(C(=O)O)c3cc(Br)ccc3n2)nnn1-c1ccc(Br)cc1 [Compound 5w, 6-Bromo-2-(1-(4-bromophenyl)-5-methyl-1H-1,2,3-triazol-4-yl)benzo [b]pyridine-4-carboxylic acid]	< 125	15 (≈ 30.7 µM)	> 125	10	> 300	–	–	–
Cc1c(-c2cc(C(=O)O)c3cc(Br)ccc3n2)nnn1-c1ccc([N+](=O)[O-])cc1 [Compound 5x, 6-Bromo-2-(5-methyl-1-(4-nitrophenyl)-1H-1,2,3-triazol-4-yl)benzo [b]pyridine-4-carboxylic acid]	< 125	125 (≈ 275 µM)	> 125	–	236 to 238	–	–	–
CC(C)c1ccc2nc(-c3ccc4ccc5ccccc5c4c3)cc(C(=O)O)c2c1 [Compound II]	–	–	–	–	–	–	around 16 μM	–
NNC(=O)c1ccncc1 [INH, isoniazid, reference compound]	0.05 (≈ 0.365 µM)	0.1 (≈ 0.729 µM)	0.1 (≈ 0.729 µM)	–	–	240 ± 10	–	–
Fc1cccc(-c2nc3ccccc3n2Cc2cn(-c3ccc(F)cc3F)nn2)c1 [compound VII]	–	–	–	–	–	–	–	6.25 (≈ 15.4 µM)
